The values below come from US9169254B2, “Spiroimidazolone derivative” (Chugai Seiyaku Kabushiki Kaisha, priority 2009, dated 2015).

The first test concerns the target T1, human PTH1 receptor (Homo sapiens, UniProt Q03431).
T1 sequence (Q03431 27-593): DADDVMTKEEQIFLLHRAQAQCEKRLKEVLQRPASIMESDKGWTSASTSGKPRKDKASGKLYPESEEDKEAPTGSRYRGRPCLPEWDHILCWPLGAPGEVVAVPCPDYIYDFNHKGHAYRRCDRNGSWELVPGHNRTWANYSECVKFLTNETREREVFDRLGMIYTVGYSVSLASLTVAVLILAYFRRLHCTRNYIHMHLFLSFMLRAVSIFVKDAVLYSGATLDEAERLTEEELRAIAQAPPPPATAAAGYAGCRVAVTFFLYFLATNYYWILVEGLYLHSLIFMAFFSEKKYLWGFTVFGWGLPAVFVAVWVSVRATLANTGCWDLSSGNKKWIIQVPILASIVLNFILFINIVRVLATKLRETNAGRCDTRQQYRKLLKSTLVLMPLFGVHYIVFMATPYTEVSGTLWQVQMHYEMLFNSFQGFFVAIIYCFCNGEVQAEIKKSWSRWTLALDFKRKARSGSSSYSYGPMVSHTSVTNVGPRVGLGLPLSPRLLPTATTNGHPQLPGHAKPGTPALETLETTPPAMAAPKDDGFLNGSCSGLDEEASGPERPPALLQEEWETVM
Put plainly: In vitro cAMP signal activity in HKRK-B7 cells (LLC-PK1 cells overexpressing the human PTH1 receptor). The conditions noted are these: HKRK-B7 cells; compound at 1×10^−3 M; cAMP produced as percentage of that produced by hPTH(1-34) at 100 nM. The format is cell-based.
Consider `Cc1cc(N(C)C(N)=O)cc(C)c1CCS(=O)(=O)N1CCC2(CC1)N=C(c1cccc(CCCC(F)(F)F)c1)NC2=O` [Compound 1359, 1-[3,5-dimethyl-4-(2-{4-oxo-2-[3-(4,4,4-trifluoro-butyl)-phenyl]-1,3,8-triaza-spiro[4.5]dec-1-ene-8-sulfonyl}-ethyl)-phenyl]-1-methyl-urea], for which the “cAMP production activity (%)” value came to 165%.

Turning to `Cc1cc(N(C)C(N)=O)cc(C)c1CCS(=O)(=O)N1CCC2(CC1)N=C(CCCCCCCCCCCNC(=O)OC(C)(C)C)NC2=O` [Compound 1360, [11-(8-{2-[2,6-dimethyl-4-(1-methyl-ureido)-phenyl]-ethanesulfonyl}-4-oxo-1,3,8-triaza-spiro[4.5]dec-1-en-2-yl)-undecyl]-carbamic acid tert-butyl ester], the “cAMP production activity (%)” value came to 121%.

Consider `Cc1cc(N(C)C(N)=O)cc(C)c1CCS(=O)(=O)N1CCC2(CC1)N=C(CCCCCCCCCCCO)NC2=O` [Compound 1361, 1-(4-{2-[2-(11-hydroxy-undecyl)-4-oxo-1,3,8-triaza-spiro[4.5]dec-1-ene-8-sulfonyl]-ethyl}-3,5-dimethyl-phenyl)-1-methyl-urea], for which the “cAMP production activity (%)” value came to 104%.

In the case of `Cc1cc(N(C)C(N)=O)cc(C)c1CCS(=O)(=O)N1CCC2(CC1)N=C(CCCCCCCCCC(=O)O)NC2=O` [Compound 1362, 10-(8-{2-[2,6-dimethyl-4-(1-methyl-ureido)-phenyl]-ethanesulfonyl}-4-oxo-1,3,8-triaza-spiro[4.5]dec-1-en-2-yl)-decanoic acid], the “cAMP production activity (%)” value was 48%.

Regarding `Cc1cc(N(C)C(N)=O)cc(C)c1CCS(=O)(=O)N1CCC2(CC1)N=C(CCCCCCCCCC(N)=O)NC2=O` [Compound 1363, 10-(8-{2-[2,6-dimethyl-4-(1-methyl-ureido)-phenyl]-ethanesulfonyl}-4-oxo-1,3,8-triaza-spiro[4.5]dec-1-en-2-yl)-decanoic acid amide], the “cAMP production activity (%)” value was 80%.

For the compound `[2H]C([2H])([2H])C1([2H])CCC(C2=NC3(CCN(S(=O)(=O)CCc4c(C)cc(N(C)C(N)=O)cc4C)CC3)C(=O)N2)CC1` (centres unmarked) [Compound 1364, 1-(3,5-dimethyl-4-{2-[2-(4-[1,1,1-^2H3]-methyl-[4-^2H1]cyclohexyl)-4-oxo-1,3,8-triaza-spiro[4.5]dec-1-ene-8-sulfonyl]-ethyl}-phenyl)-1-methyl-urea], the “cAMP production activity (%)” value was 84%.

For `Cc1cc(N(C)C(N)=O)cc(C)c1/C=C/S(=O)(=O)N1CCC2(CC1)N=C(CCCCCCCCCc1ccccc1)NC2=O` [Compound 1365, 1-(3,5-Dimethyl-4-{(E)-2-[4-oxo-2-(9-phenyl-nonyl)-1,3,8-triaza-spiro[4.5]dec-1-ene-8-sulfonyl]-vinyl}-phenyl)-1-methyl-urea], the “cAMP production activity (%)” value was found to be 108%.

As to `Cc1cc(N(C)C(N)=O)cc(C)c1CCS(=O)(=O)N1CCC2(CC1)N=C(CCCCCCCCCCCN)NC2=O` [Compound 1366, 1-(4-{2-[2-(11-Amino-undecyl)-4-oxo-1,3,8-triaza-spiro[4.5]dec-1-ene-8-sulfonyl]-ethyl}-3,5-dimethyl-phenyl)-1-methyl-urea], the “cAMP production activity (%)” value is listed as 103%.

`CCOc1c(N(C)c2cc(C)c(CCS(=O)(=O)N3CCC4(CC3)N=C([C@H]3CC[C@H](C)CC3)NC4=O)c(C)c2)c(=O)c1=O` [Compound 1367, 3-[(3,5-Dimethyl-4-{2-[2-(4-methyl-cyclohexyl)-4-oxo-1,3,8-triaza-spiro[4.5]dec-1-ene-8-sulfonyl]-ethyl}-phenyl)-methyl-amino]-4-ethoxy-cyclobut-3-ene-1,2-dione]: the “cAMP production activity (%)” value was 58%.

In the case of `Cc1cc(N(C)c2c(N)c(=O)c2=O)cc(C)c1CCS(=O)(=O)N1CCC2(CC1)N=C([C@H]1CC[C@H](C)CC1)NC2=O` [Compound 1368, 3-Amino-4-[(3,5-dimethyl-4-{2-[2-(4-methyl-cyclohexyl)-4-oxo-1,3,8-triaza-spiro[4.5]dec-1-ene-8-sulfonyl]-ethyl}-phenyl)-methyl-amino]-cyclobut-3-ene-1,2-dione], the “cAMP production activity (%)” value is on record as 83%.

As for `Cc1cc(N(C)c2c(N(C)C)c(=O)c2=O)cc(C)c1CCS(=O)(=O)N1CCC2(CC1)N=C([C@H]1CC[C@H](C)CC1)NC2=O` [Compound 1369, 3-Dimethylamino-4-[(3,5-dimethyl-4-{2-[2-(4-methyl-cyclohexyl)-4-oxo-1,3,8-triaza-spiro[4.5]dec-1-ene-8-sulfonyl]-ethyl}-phenyl)-methyl-amino]-cyclobut-3-ene-1,2-dione], the “cAMP production activity (%)” value amounted to 30%.

Consider `Cc1cc(N(C)C(N)=O)cc(C)c1CCS(=O)(=O)N1CCC2(CC1)N=C(C1CCC(C)CC1)N/C2=N/O` (centres unmarked) [Compound 1371, 1-(4-{2-[4-[(E)-Hydroxyimino]-2-(4-methyl-cyclohexyl)-1,3,8-triaza-spiro[4.5]dec-1-ene-8-sulfonyl]-ethyl}-3,5-dimethyl-phenyl)-1-methyl-urea], for which the “cAMP production activity (%)” value came to 84%.

With `Cc1ccccc1CNS(=O)(=O)N1CCC2(CC1)N=C(C1CCC(C)CC1)NC2=O` (centres unmarked) [Compound 1372, 2-(4-Methyl-cyclohexyl)-4-oxo-1,3,8-triaza-spiro[4.5]dec-1-ene-8-sulfonic acid 2-methyl-benzylamide], the “cAMP production activity (%)” value was 36%.

Turning to `O=C1NC(C2CCCCC2)=NC12CCN(S(=O)(=O)CC(O)c1cccc3c1ccn3C[C@H](O)CO)CC2` (stereo partly drawn) [Compound 1374, 2-Cyclohexyl-8-{2-[1-((S)-2,3-dihydroxy-propyl)-1H-indol-4-yl]-2-hydroxy-ethanesulfonyl}-1,3,8-triaza-spiro[4.5]dec-1-en-4-one], the “cAMP production activity (%)” value came out at 33%.

For `Cc1ccccc1C(=O)CS(=O)(=O)N1CCC2(CC1)N=C(C1CCCCC1)NC2=O` [Compound 1375, 2-Cyclohexyl-8-(2-oxo-2-o-tolyl-ethanesulfonyl)-1,3,8-triaza-spiro[4.5]dec-1-en-4-one], the “cAMP production activity (%)” value is reported as 23%.

As to `Cc1ccccc1C#CS(=O)(=O)N1CCC2(CC1)N=C(C1CCCCC1)NC2=O` [Compound 1376, 2-Cyclohexyl-8-(2-o-tolyl-ethynesulfonyl)-1,3,8-triaza-spiro[4.5]dec-1-en-4-one], the “cAMP production activity (%)” value came out at 42%.

As for `O=C1NC(C2CCCCC2)=NC12CCN(S(=O)(=O)C#Cc1cccc3[nH]ccc13)CC2` [Compound 1377, 2-Cyclohexyl-8-[2-(1H-indol-4-yl)-ethynesulfonyl]-1,3,8-triaza-spiro[4.5]dec-1-en-4-one], the “cAMP production activity (%)” value amounted to 35%.

Take `Cc1cc(C(=O)N(C)C)cc(C)c1CCS(=O)(=O)N1CCC2(CC1)N=C(C1CCC(CCC(F)(F)F)CC1)NC2=O` (centres unmarked) [Compound 1378, 3,5,N,N-Tetramethyl-4-(2-{4-oxo-2-[4-(3,3,3-trifluoro-propyl)-cyclohexyl]-1,3,8-triaza-spiro[4.5]dec-1-ene-8-sulfonyl}-ethyl)-benzamide]: the “cAMP production activity (%)” value was determined as 116%.

As to `Cc1cc(C(=O)N(C)C)cc(C)c1CCS(=O)(=O)N1CCC2(CC1)N=C(C1CCC(C)CC1)NC2=O` (centres unmarked) [Compound 1379, 3,5,N,N-tetramethyl-4-{2-[2-(4-methyl-cyclohexyl)-4-oxo-1,3,8-triaza-spiro[4.5]dec-1-ene-8-sulfonyl]-ethyl}-benzamide], the “cAMP production activity (%)” value is 86%.

As to `Cc1cc(C(=O)N2CCC(C)(O)CC2)cc(C)c1CCS(=O)(=O)N1CCC2(CC1)N=C(C1CCC(CCC(F)(F)F)CC1)NC2=O` (centres unmarked) [Compound 1380, 8-{2-[4-(4-hydroxy-4-methyl-piperidine-1-carbonyl)-2,6-dimethyl-phenyl]-ethanesulfonyl}-2-[4-(3,3,3-trifluoro-propyl)-cyclohexyl]-1,3,8-triaza-spiro[4.5]dec-1-en-4-one], the “cAMP production activity (%)” value worked out at 109%.

For `Cc1cc(C(=O)N2CCC(O)(CF)CC2)cc(C)c1CCS(=O)(=O)N1CCC2(CC1)N=C(C1CCC(CCC(F)(F)F)CC1)NC2=O` (centres unmarked) [Compound 1381, 8-{2-[4-(4-fluoromethyl-4-hydroxy-piperidine-1-carbonyl)-2,6-dimethyl-phenyl]-ethanesulfonyl}-2-[4-(3,3,3-trifluoro-propyl)-cyclohexyl]-1,3,8-triaza-spiro[4.5]dec-1-en-4-one], the “cAMP production activity (%)” value stood at 102%.

With `Cc1cc(C(=O)N2CCC(C)(O)CC2)cc(C)c1CCS(=O)(=O)N1CCC2(CC1)N=C(C1CCC(C)CC1)NC2=O` (centres unmarked) [Compound 1382, 8-{2-[4-(4-hydroxy-4-methyl-piperidine-1-carbonyl)-2,6-dimethyl-phenyl]-ethanesulfonyl}-2-(4-methyl-cyclohexyl)-1,3,8-triaza-spiro[4.5]dec-1-en-4-one], the “cAMP production activity (%)” value came out at 93%.

Still in this test, the particulars now being: HKRK-B7 cells; compound at 1×10^−3 M; cAMP produced as percentage of that produced by hPTH(1-34) at 100 nM; 0.1 µM.
As for `C#C[C@H]1CC[C@@H](C2=NC3(CCN(S(=O)(=O)CCc4ccc(NC(C)=O)cc4C)CC3)C(=O)N2)CC1` [Compound 1370, N-(4-{2-[2-(4-Ethynyl-cyclohexyl)-4-oxo-1,3,8-triaza-spiro[4.5]dec-1-ene-8-sulfonyl]-ethyl}-3-methyl-phenyl)-acetamide], the “cAMP production activity (%)” value amounted to 64%.
